Source: patent EP4806891A1 (Kangbaida (Sichuan) Biotechnology Co., Ltd., priority 2023, dated 2025)

Legend:
HEK-Blue-hTLR7 cells = biological target: T1, HEK-Blue-hTLR7 cells (Homo sapiens, UniProt Q9NYK1); assay: HEK-Blue-hTLR7 cell inhibition assay; assay type: cell-based; settings: R848 0.8 µM, 16 h, OD 620 nm, read-out: TLR7 IC50
T1 construct: expressed in transfected cells; host or cells: HEK-Blue-hTLR7 cells (HEK293-derived reporter line)
T1 sequence (Q9NYK1 27-1049): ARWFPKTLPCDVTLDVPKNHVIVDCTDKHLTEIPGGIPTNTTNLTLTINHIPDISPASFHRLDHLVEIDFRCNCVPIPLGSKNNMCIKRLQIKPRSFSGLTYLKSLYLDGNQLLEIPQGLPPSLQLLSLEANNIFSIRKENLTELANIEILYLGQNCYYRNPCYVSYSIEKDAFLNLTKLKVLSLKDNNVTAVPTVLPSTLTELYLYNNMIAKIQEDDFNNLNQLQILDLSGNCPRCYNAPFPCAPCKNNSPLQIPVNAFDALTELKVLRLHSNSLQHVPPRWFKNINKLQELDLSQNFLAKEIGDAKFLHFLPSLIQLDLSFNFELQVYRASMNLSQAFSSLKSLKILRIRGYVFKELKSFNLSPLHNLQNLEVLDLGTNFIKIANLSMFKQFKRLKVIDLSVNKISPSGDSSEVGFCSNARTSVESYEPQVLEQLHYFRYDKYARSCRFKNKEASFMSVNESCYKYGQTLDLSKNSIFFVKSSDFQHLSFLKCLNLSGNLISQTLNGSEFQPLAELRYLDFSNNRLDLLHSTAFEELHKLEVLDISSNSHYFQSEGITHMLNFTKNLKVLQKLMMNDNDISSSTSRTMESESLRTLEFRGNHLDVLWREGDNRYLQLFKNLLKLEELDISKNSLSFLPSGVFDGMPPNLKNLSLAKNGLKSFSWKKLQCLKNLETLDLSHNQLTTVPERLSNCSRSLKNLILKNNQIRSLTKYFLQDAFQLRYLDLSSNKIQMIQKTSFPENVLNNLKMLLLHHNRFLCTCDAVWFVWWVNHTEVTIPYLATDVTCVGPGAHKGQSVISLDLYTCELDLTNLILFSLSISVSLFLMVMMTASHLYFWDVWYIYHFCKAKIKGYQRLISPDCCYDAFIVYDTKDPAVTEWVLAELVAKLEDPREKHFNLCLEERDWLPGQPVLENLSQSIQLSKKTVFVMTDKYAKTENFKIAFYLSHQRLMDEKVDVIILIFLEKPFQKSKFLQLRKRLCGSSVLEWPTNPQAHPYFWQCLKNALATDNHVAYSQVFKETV
Outline: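 Cells were pre-incubated 4 h, then co-treated 16 h at 37 °C with compound (10 doses, 0.5–10000 nM final) plus R848 (0.8 µM for TLR7, 3 µM for TLR8) or ODN2006 (1 µM, TLR9). Reporter OD620 gave inhibition relative to DMSO blank and agonist-only controls; IC50 came from curve fitting.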

IL-6 = assay: In vivo inhibition assay of IL-6; set-up: species or system C57BL/6 female mice; settings: Mus musculus, ip; mice, test compound 1 mg/kg by gavage, 25 µg R848 intraperitoneally 1 h later, serum IL-6 2 h later; read-out: IL-6 inhibition rate (intraperitoneal injection after 1 h)
Protocol: In vivo inhibition assay of IL-6
Experimental materials: Preparation of compound solutions: R848 was prepared with pure water (sterilized), with a final concentration of 25 µg/100 µL; the test compound was prepared with sodium citrate buffer at pH = 3, with a final concentration of 0.1 mg/mL.
Experimental animals: C57BL/6 female mice were purchased from GemPharmatech, aged 6-8 weeks.
Experimental methods: C57BL/6 female mice were randomly divided into a blank group, control group, and experimental group, with 8 in each group.
Blank group: Blood was collected from the mice after 12 h of fasting.
Control group: The mice were administered sodium citrate buffer at pH = 3 by gavage after 12 hours of fasting, and the remaining procedures were consistent with those of the experimental group.
Experimental group: After fasting for 12 h, the mice were administered with the test compound (1 mg/kg) by gavage, followed by an intraperitoneal injection of 25 µg R848 (purchased from MCE) 1 h later; 2 h later, the eyeballs were removed for blood collection, the serum was allowed to stand at room temperature for 30 min, then centrifuged for 10 min (3000 rpm), the supernatant was collected, and the serum IL-6 concentration was measured using an IL-6 ELISA kit. The IL-6 inhibition rate was calculated based on the serum IL-6 concentrations of the control and experimental groups. Calculation formula: inhibition rate = (C2-C3)/(C2-C1)×100%. • C1: serum IL-6 concentration of the blank group; • C2: serum IL-6 concentration of the control group; • C3: serum IL-6 concentration of the experimental group.
Four additional groups of experiments were performed separately according to the above experimental procedures, and the differences between these four groups and the above experiment were respectively: "25 µg R848 (purchased from MCE) was intraperitoneally injected after 4 h", "25 µg R848 (purchased from MCE) was intraperitoneally injected after 8 h", "25 µg R848 (purchased from MCE) was intraperitoneally injected after 16 h", and "25 µg R848 (purchased from MCE) was intraperitoneally injected after 24 h". Table 2: In vivo inhibition assay of IL-6

Structure (SMILES)	IC50 (HEK-Blue-hTLR7 cells)	inhibition at 1 mg/kg (IL-6)
CN1CC(Cc2nnc([C@]34CN(c5ccc(C#N)n6ncc(F)c56)C[C@@]3(C(F)(F)F)C4)o2)C1 [Compound 30, 3-fluoro-4-((1S,5R)-1-(5-((1-methylazetidin-3-yl)methyl)-1,3,4-oxadiazol-2-yl)-5-(trifluoromethyl)-3-azabicyclo[3.1.0]hexan-3-yl)pyrazolo[1,5-a]pyridine-7-carbonitrile]	< 100 nM	> 90%
CN1CC(Cc2nnc([C@]34CN(c5ccc(C(F)(F)F)c6ncccc56)C[C@@]3(C(F)(F)F)C4)o2)C1 [Compound 95, 2-((1-methylazetidin-3-yl)methyl)-5-((1S,5R)-5-(trifluoromethyl)-3-(8-(trifluoromethyl)quinolin-5-yl)-3-azabicyclo[3.1.0]hexan-1-yl)-1,3,4-oxadiazole]	< 100 nM	> 90%
CN1CCC(c2nnc([C@]34CN(c5ccc(OC(F)(F)F)c6ncccc56)C[C@@]3(C(F)(F)F)C4)o2)CC1 [Compound 64, 2-(1-methylpiperidin-4-yl)-5-((1S,5R)-5-(trifluoromethyl)-3-(8-(trifluoromethoxy)quinolin-5-yl)-3-azabicyclo[3.1.0]hexan-1-yl)-1,3,4-oxadiazole]	< 100 nM	> 70%
CN1CCC(c2nnc([C@]34CN(c5ccc(C#N)n6nccc56)C[C@@]3(C(F)(F)F)C4)o2)CC1 [Compound 59, 4-((1S,5R)-1-(5-(1-methylpiperidin-4-yl)-1,3,4-oxadiazol-2-yl)-5-(trifluoromethyl)-3-azabicyclo[3.1.0]hexan-3-yl)pyrazolo[1,5-a]pyridine-7-carbonitrile]	< 100 nM	> 80%
CN1CCC(c2nnc([C@]34CN(c5ccc(C#N)n6ncc(F)c56)C[C@@]3(C(F)(F)F)C4)o2)CC1 [Compound 57, 3-fluoro-4-((1S,5R)-1-(5-(1-methylpiperidin-4-yl)-1,3,4-oxadiazol-2-yl)-5-(trifluoromethyl)-3-azabicyclo[3.1.0]hexan-3-yl)pyrazolo[1,5-a]pyridine-7-carbonitrile]	< 100 nM	> 90%
CN1CCC(F)(c2nnc([C@]34CN(c5ccc(C#N)c6ncccc56)C[C@@]3(C(F)(F)F)C4)o2)C1 (stereo partly drawn) [Compound 47, 5-((1S,5R)-1-(5-(3-fluoro-1-methylpyrrolidin-3-yl)-1,3,4-oxadiazol-2-yl)-5-(trifluoromethyl)-3-azabicyclo[3.1.0]hexan-3-yl)quinoline-8-carbonitrile]	< 100 nM	–
CN1CCC(Oc2nnc([C@]34CN(c5ccc(C(F)(F)F)c6ncccc56)C[C@@]3(C(F)(F)F)C4)o2)CC1 [Compound 92, 2-((1-methylpiperidin-4-yl)oxy)-5-((1S,5R)-5-(trifluoromethyl)-3-(8-(trifluoromethyl)quinolin-5-yl)-3-azabicyclo[3.1.0]hexan-1-yl)-1,3,4-oxadiazole]	< 100 nM	–
N#Cc1ccc(N2C[C@]3(c4nnc(N5CCOCC5)o4)C[C@]3(C(F)(F)F)C2)c2cccnc12 [Compound 27, 5-((1S,5R)-1-(5-morpholino-1,3,4-oxadiazol-2-yl)-5-(trifluoromethyl)-3-azabicyclo[3.1.0]hexan-3-yl)quinoline-8-carbonitrile]	< 100 nM	–
CN1CCC(n2cc([C@]34CN(c5ccc(C#N)c6ncccc56)C[C@@]3(C(F)(F)F)C4)nn2)CC1 [Compound 71, 5-((1S,5R)-1-(1-(1-methylpiperidin-4-yl)-1H-1,2,3-triazol-4-yl)-5-(trifluoromethyl)-3-azabicyclo[3.1.0]hexan-3-yl)quinoline-8-carbonitrile]	< 100 nM	–
N#Cc1ccc(N2C[C@]3(c4nnc([C@H]5CN(CC(N)=O)CCO5)o4)C[C@]3(C(F)(F)F)C2)c2cccnc12 [Compound 56, 2-((R)-2-(5-((1S,5R)-3-(8-cyanoquinolin-5-yl)-5-(trifluoromethyl)-3-azabicyclo[3.1.0]hexan-1-yl)-1,3,4-oxadiazol-2-yl)morpholino)acetamide]	< 100 nM	–
N#Cc1ccc(N2C[C@]3(c4nnc(C5CC6(CNC6)C5)o4)C[C@]3(C(F)(F)F)C2)c2cccnc12 [Compound 18, 5-((1S,5R)-1-(5-(2-azaspiro[3.3]heptan-6-yl)-1,3,4-oxadiazol-2-yl)-5-(trifluoromethyl)-3-azabicyclo[3.1.0]hexan-3-yl)quinoline-8-carbonitrile]	< 100 nM	–
CN1CCC(Oc2nnc([C@]34CN(c5ccc(C#N)c6ncnn56)C[C@@]3(C(F)(F)F)C4)o2)CC1 [Compound 97, 5-((1S,5R)-1-(5-((1-methylpiperidin-4-yl)oxy)-1,3,4-oxadiazol-2-yl)-5-(trifluoromethyl)-3-azabicyclo[3.1.0]hexan-3-yl)-[1,2,4]triazolo[1,5-a]pyridine-8-carbonitrile]	< 100 nM	> 90%
